Experimental data reported in US11547678B2, “Aqueous pharmaceutical formulation of tapentadol for oral administration” (GRÜNENTHAL GMBH, priority 2011, dated 2023).

What was measured:
[1] = Antimicrobial robustness testing of 4 mg/mL oral solution, higher sodium benzoate: USP and Pharm. Eur. requirements (Example 4); assay type: cell-based; details: 2.36 mg/mL sodium benzoate (corresponding to 2 mg/mL benzoic acid)
Protocol: Antimicrobial Robustness Testing of 4 mg/mL Tapentadol Oral Solution (Higher Concentration of Sodium Benzoate)
Based on the obtained results the test was repeated using a formulation containing a higher preservative concentration of 2.36 mg/mL instead of 1.77 mg/mL sodium benzoate.
The above study of example 3 was repeated using a formulation of 4 mg/mL tapentadol and 2.36 mg/mL sodium benzoate (corresponding to 2 mg/mL benzoic acid). The antimicrobial activity of the formulation was determined with 100% at target pH of 4 and with 80% of sodium benzoate at the pH limits of 3.5 and 4.5. The following compositions of the formulation were used for the antimicrobial robustness testing (Table 4).

[2] = Antimicrobial robustness testing of 4 mg/mL oral solution, lower sodium benzoate: USP and Pharm. Eur. requirements (Example 3); assay type: cell-based; details: 4 mg/mL solution
Protocol: Antimicrobial Robustness Testing of 4 mg/mL Tapentadol Oral Solution (Lower Concentration of Sodium Benzoate)
The 4 mg/mL solution of tapentadol has also been subjected to an antimicrobial robustness testing. […] Therefore, sodium benzoate has been used as a preservative in the formulation. The antimicrobial activity of the formulation was determined with 100% at target pH of 4 and with 80% of sodium benzoate at the pH limits of 3.5 and 4.5. The following compositions of the formulation were used for the antimicrobial robustness testing (Table 3).

[3] = Chemical stability of 4 and 20 mg/mL oral solution (Example 7); assay type: physicochemical; details: 3 months storage
Protocol: Chemical Stability of 4 and 20 mg/mL Tapentadol Oral Solution
To investigate the chemical stability of tapentadol oral solutions in different concentrations (4 and 20 mg/mL), stability studies were performed over 3 months evaluating the following parameters appearance, assay of tapentadol, degradation, assay preservative (only for the 4 mg/mL formulation) and pH at 25° C./60% RH, 40° C./75% RH and 50° C. In addition, for the 4 mg/mL solution 2 weeks cycling studies (from −15° C. to 30° C. as well as from 5° C. to 40° C.) were performed.

mold (Aspergillus niger) = assay: Initial studies: activity against mold; assay type: cell-based; details: 10 mg/mL free base
Text: (§1) The activity against mold (Aspergillus niger) is lower but still within the limits of the requirements of the Pharm. Eur. The activity of tapentadol hydrochloride against Aspergillus niger has been evaluated at lower drug concentrations and at pH 4.0 and 5.0 in formulations containing citric acid as buffer system and hydrochloric acid and sodium hydroxide to adjust the pH.

[4] = Initial studies: antimicrobial activity of tapentadol hydrochloride; assay type: cell-based; details: 10 mg/mL free base
Text: as §1

yeast = assay: Initial studies: activity against yeast; assay type: cell-based; details: 10 mg/mL free base
Aspergillus niger = assay: Activity against Aspergillus niger at lower drug concentrations, pH 4.0 and 5.0 (Example 1); assay type: cell-based
Text: Determination of Antimicrobial Effective Concentration of Tapentadol Hydrochloride
as §1
The requirements of Pharm. Eur. for oral solutions (log reduction of 1 after 14 and no increase after 28 days concerning mold A. niger) are met at pH 4 for tapentadol concentrations of equal or above 8 mg/mL and at pH 5 for concentrations equal or above to 4 mg/m L.

Question: For `O=C([O-])c1ccccc1.[Na+]` [sodium benzoate], which “antimicrobial efficacy for a 4 mg/mL tapentadol hydrochloride oral solution” value [1] is on record?
Answer: sufficient

Question: Which “antimicrobial effect of the drug substance” value [2] does the source give for `CC[C@@H](c1cccc(O)c1)[C@@H](C)CN(C)C.Cl` [tapentadol hydrochloride, (1R,2R)-3-(3-dimethylamino-1-ethyl-2-methyl-propyl)-phenol hydrochloride] here?
Answer: not sufficiently pronounced

Question: And the “stability of the API in solution” value [3]?
Answer: good stability

Question: What about the “activity against mold (Aspergillus niger)” value (mold (Aspergillus niger)) of the same molecule?
Answer: lower but still within the limits of the requirements of the Pharm. Eur.

Question: What about the antimicrobial activity [4] of the same molecule?
Answer: high

Question: What about the activity against yeast (yeast) of the same molecule?
Answer: high

Question: And the “antimicrobial activity at pH 5 compared with pH 4” value (Aspergillus niger; after 14 and 28 days)?
Answer: better antimicrobial activity

Question: And the “concentration limit for antimicrobial effectiveness of tapentadol” value (Aspergillus niger; depending on the pH (4 to 5))?
Answer: 4 to 8 mg/mL

Question: And the “tapentadol concentration at which requirements of Pharm. Eur. for oral solutions concerning mold A. niger are met” value (Aspergillus niger; pH 5, log reduction of 1 after 14 and no increase after 28 days)?
Answer: ≥ 4 mg/mL
